Test results: the NIST ThermoML archive (doi:10.1021/je060271a)

Conditions: 323.15 K, Liquid, Vibrating tube method

CCCCC(=O)OCC(COC(=O)CCCC)(COC(=O)CCCC)COC(=O)CCCC [pentaerythritol tetrapentanoate]
Conditions	mass density [kg/m3]
15928 kPa	1005.6
15948 kPa	1005.6
15968 kPa	1005.5
15988 kPa	1005.5
16012 kPa	1005.6
16032 kPa	1005.7
16056 kPa	1005.6
16076 kPa	1005.7
16096 kPa	1005.7
16116 kPa	1005.7
16141 kPa	1005.7
16161 kPa	1005.6
16185 kPa	1005.7
16205 kPa	1005.7
16227 kPa	1005.7
16252 kPa	1005.7
16273 kPa	1005.7
16293 kPa	1005.7
16318 kPa	1005.8
16339 kPa	1005.8
16360 kPa	1005.8
16385 kPa	1005.8
16406 kPa	1006
16427 kPa	1005.8
16453 kPa	1005.9
16474 kPa	1006
16495 kPa	1005.9
16521 kPa	1005.9
16542 kPa	1006
16564 kPa	1006
16586 kPa	1006
16612 kPa	1006
16634 kPa	1006.1
16660 kPa	1006.1
16681 kPa	1006
16704 kPa	1006.1
16730 kPa	1006.2
16752 kPa	1006.1
16774 kPa	1006.1
16800 kPa	1006.1
16823 kPa	1006.1
16845 kPa	1006.2
16872 kPa	1006.2
16894 kPa	1006.1
16917 kPa	1006.2
16944 kPa	1006.3
16967 kPa	1006.3
16990 kPa	1006.2
17017 kPa	1006.1
17040 kPa	1006.2
17063 kPa	1006.2
17090 kPa	1006.4
17114 kPa	1006.3
17138 kPa	1006.4
17161 kPa	1006.3
17189 kPa	1006.4
17212 kPa	1006.4
17236 kPa	1006.4
17264 kPa	1006.4
17288 kPa	1006.4
17312 kPa	1006.4
17335 kPa	1006.5
17364 kPa	1006.5
17388 kPa	1006.6
17412 kPa	1006.6
17441 kPa	1006.5
17467 kPa	1006.5
17491 kPa	1006.5
17520 kPa	1006.6
17544 kPa	1006.6
17568 kPa	1006.6
17593 kPa	1006.6
17623 kPa	1006.7
17647 kPa	1006.7
17672 kPa	1006.7
17702 kPa	1006.8
17726 kPa	1006.7
17756 kPa	1006.6
17781 kPa	1006.7
17807 kPa	1006.7
17832 kPa	1006.7
17862 kPa	1006.8
17887 kPa	1006.9
17913 kPa	1006.7
17944 kPa	1006.8
17969 kPa	1006.8
18000 kPa	1006.9
18025 kPa	1006.8
18051 kPa	1006.9
18077 kPa	1006.9
18108 kPa	1007
18134 kPa	1007
18161 kPa	1007.1
18192 kPa	1007
18218 kPa	1007
18249 kPa	1007.1
18276 kPa	1007.2
18303 kPa	1007.1
18329 kPa	1007.1
18361 kPa	1007.1
18388 kPa	1007.1
18415 kPa	1007.1
18447 kPa	1007.2
18475 kPa	1007.2
18502 kPa	1007.2
18530 kPa	1007.2
18563 kPa	1007.2
18590 kPa	1007.3
18618 kPa	1007.4
18651 kPa	1007.4
18679 kPa	1007.4
18707 kPa	1007.3
18740 kPa	1007.4
18768 kPa	1007.3
18797 kPa	1007.4
18831 kPa	1007.4
18859 kPa	1007.4
18888 kPa	1007.4
18917 kPa	1007.4
18952 kPa	1007.5
18980 kPa	1007.5
19014 kPa	1007.5
19043 kPa	1007.6
19072 kPa	1007.5
19101 kPa	1007.7
19136 kPa	1007.6
19166 kPa	1007.7
19196 kPa	1007.7
19232 kPa	1007.6
19262 kPa	1007.7
19292 kPa	1007.8
19322 kPa	1007.7
19388 kPa	1007.8
19515 kPa	1007.8
19552 kPa	1007.8
19582 kPa	1007.8
19613 kPa	1008
19650 kPa	1007.9
19682 kPa	1008
19716 kPa	1008
19747 kPa	1008.1
19778 kPa	1007.9
19817 kPa	1008
19848 kPa	1008
19887 kPa	1008
19919 kPa	1008
19952 kPa	1008.1
19992 kPa	1008.1
20023 kPa	1008.2
20052 kPa	1008.2
20085 kPa	1008.2
20113 kPa	1008.2
20143 kPa	1008.2
20171 kPa	1008.3
20199 kPa	1008.2
20232 kPa	1008.3
20260 kPa	1008.2
20288 kPa	1008.4
20321 kPa	1008.4
20349 kPa	1008.4
